# Results from patent US7087375B1, “Method for determining the mechanism of HIV RT inhibitors” (priority 2000, dated 2006).
# Values joined by “and” are separate entries in the source; they are usually repeats but may differ in a detail not shown here. Equal entries are not always repeated. Where two headings read alike, the source gives them in different places.
# How the values were obtained:
# Type in all cases: biochemical
# [1] = molecular target: T1, HIV-1 RT wild type (HXB2) (Human immunodeficiency virus type 1 group M subtype B, UniProt P04585)
# T1 construct: The final RT products, in a heterodimeric form (p66/p51); made in house; host or cells: E. coli XL1-Blue (vector pKK233-2)
# HIV-1 RT mutant 41/215 = HIV-1 RT mutant 41/215 (Human immunodeficiency virus type 1 group M subtype B, UniProt P04585, M628L/T802Y); experiment: RT inhibition assay (Lenti RT, polyrA/oligo(dT), BrdUTP); conditions: 41/215 RT, AZT-TP assay
# [2] = molecular target: T2, HIV-1 RT mutant 41/184/215 (Human immunodeficiency virus type 1 group M subtype B, UniProt P04585, M628L/M771V/T802Y); conditions: 41/184/215 RT, AZT-TP assay, read-out: Km (BrdUTP)
# T2 construct: The final RT products, in a heterodimeric form (p66/p51); made in house; host or cells: E. coli XL1-Blue (vector pKK233-2)
# [3] = molecular target: T3, HIV-1 RT mutant 41/67/70/215 (Human immunodeficiency virus type 1 group M subtype B, UniProt P04585, D654N/K657R/M628L/T802Y); conditions: 41/67/70/215 RT
# T3 construct: The final RT products, in a heterodimeric form (p66/p51); made in house; host or cells: E. coli XL1-Blue (vector pKK233-2)
# [4] = molecular target: T4, HIV-1 RT mutant 41/67/70/184/215 (Human immunodeficiency virus type 1 group M subtype B, UniProt P04585, D654N/K657R/M628L/M771V/T802Y); conditions: 41/67/70/184/215 RT
# T4 construct: The final RT products, in a heterodimeric form (p66/p51); made in house; host or cells: E. coli XL1-Blue (vector pKK233-2)
# [5] = molecular target: T5, HIV-1 RT mutant 41/67/70/184/210/211/214/215 (Human immunodeficiency virus type 1 group M subtype B, UniProt P04585, D654N/K657R/L797W/L801F/M628L/M771V/R798K/T802Y); conditions: 41/67/70/184/210/211/214/215 RT
# T5 construct: The final RT products, in a heterodimeric form (p66/p51); made in house; host or cells: E. coli XL1-Blue (vector pKK233-2)
# HIV-1 RT mutant 69S-SS = molecular target: T6, HIV-1 RT mutant 69S-SS (Human immunodeficiency virus type 1 group M subtype B, UniProt P04585, INS655SS/T656S); conditions: 69S-SS RT, AZT-TP assay, read-out: Km (BrdUTP)
# T6 construct: The final RT products, in a heterodimeric form (p66/p51); made in house; host or cells: E. coli XL1-Blue (vector pKK233-2)
# [6] = molecular target: T7, HIV-1 RT mutant 41/69S-SS/215 (Human immunodeficiency virus type 1 group M subtype B, UniProt P04585, INS655SS/M628L/T656S/T802Y); conditions: 41/69S-SS/215 RT, AZT-TP assay, read-out: Km (BrdUTP)
# T7 construct: The final RT products, in a heterodimeric form (p66/p51); made in house; host or cells: E. coli XL1-Blue (vector pKK233-2)
# HIV-1 RT mutant 69S-SG = molecular target: T8, HIV-1 RT mutant 69S-SG (Human immunodeficiency virus type 1 group M subtype B, UniProt P04585, INS655SS/T656G/T656S); conditions: 69S-SG RT
# T8 construct: The final RT products, in a heterodimeric form (p66/p51); made in house; host or cells: E. coli XL1-Blue (vector pKK233-2)
# HIV-1 RT mutant 69S-AG = molecular target: T9, HIV-1 RT mutant 69S-AG (Human immunodeficiency virus type 1 group M subtype B, UniProt P04585, INS655SA/T656G/T656S); conditions: 69S-AG RT
# T9 construct: The final RT products, in a heterodimeric form (p66/p51); made in house; host or cells: E. coli XL1-Blue (vector pKK233-2)
# HIV-1 RT mutant V75T = molecular target: T10, HIV-1 RT mutant V75T (Human immunodeficiency virus type 1 group M subtype B, UniProt P04585, V662T); conditions: d4T-TP assay
# T10 construct: The final RT products, in a heterodimeric form (p66/p51); made in house
# HIV-1 RT mutant Q151M = molecular target: T11, HIV-1 RT mutant Q151M (Human immunodeficiency virus type 1 group M subtype B, UniProt P04585, Q738M); conditions: d4T-TP assay
# T11 construct: The final RT products, in a heterodimeric form (p66/p51); made in house
# [7] = AZT-TP assay, ATP 3.2 mM, read-out: Km (BrdUTP)
# [8] = d4T-TP assay, ATP 3.2 mM, read-out: Km
# [9] = d4T-TP assay, without ATP, read-out: Km
# [10] = AZT-TP assay, without ATP, read-out: Km (BrdUTP)
substance,measurement,setting,value
bromo-deoxyuridine-triphosphate [BrdUTP],Km,[1]; read-out: Km (BrdUTP),0.31 µM and 0.17 µM
same,Km,"[1]; wild type HXB2 RT, AZT-TP assay, ATP 3.2 mM + PPi 150 μM, read-out: Km (BrdUTP)",0.517 µM
same,Km,"[1]; wild type HXB2 RT, AZT-TP assay, ATP 6.0 mM, read-out: Km (BrdUTP)",0.81 µM
same,Km,"[1]; wild type HXB2 RT, AZT-TP assay, ATP […], read-out: Km (BrdUTP)",0.24 µM
same,Km,"[1]; wild type HXB2 RT, AZT-TP assay, GTP 0.5 mM, read-out: Km (BrdUTP)",0.324 µM
same,Km,"[1]; wild type HXB2 RT, AZT-TP assay, PPi 150 μM, read-out: Km (BrdUTP)",0.3 µM
same,Km,"[1]; wild type HXB2 RT, d4T-TP assay, ATP 3.2 mM, read-out: Km",0.162 µM
same,Km,"[1]; wild type HXB2 RT, d4T-TP assay, without ATP, read-out: Km",0.136 µM
same,Km,HIV-1 RT mutant 41/215; ATP 3.2 mM,0.36 µM
same,Km,HIV-1 RT mutant 41/215; without ATP,0.11 µM
same,Km,[2]; ATP 3.2 mM,0.14 µM
same,Km,[2]; without ATP,0.049 µM
same,Km,"[3]; AZT-TP assay, ATP 3.2 mM + PPi 150 μM, read-out: Km (BrdUTP)",0.202 µM
same,Km,[3]; [7],0.074 µM
same,Km,"[3]; AZT-TP assay, ATP 6.0 mM, read-out: Km (BrdUTP)",0.225 µM
same,Km,"[3]; AZT-TP assay, ATP […], read-out: Km (BrdUTP)",0.064 µM
same,Km,"[3]; AZT-TP assay, GTP 0.5 mM, read-out: Km (BrdUTP)",0.117 µM
same,Km,"[3]; AZT-TP assay, PPi 150 μM, read-out: Km (BrdUTP)",0.09 µM
same,Km,"[3]; AZT-TP assay, no extra additions (without ATP), read-out: Km (BrdUTP)",0.01 µM
same,Km,"[3]; AZT-TP assay, nontreated pyrophosphatase ATP 3.2 mM (control), single experiment, read-out: Km (BrdUTP)",0.044 µM
same,Km,"[3]; AZT-TP assay, pyrophosphatase treated ATP 3.2 mM, single experiment, read-out: Km (BrdUTP)",0.037 µM
same,Km,[3]; [8],0.126 µM
same,Km,[3]; [9],0.08 µM
same,Km,[4]; [7],0.38 µM
same,Km,[4]; [10],0.06 µM
same,Km,[4]; [8],0.152 µM
same,Km,[4]; [9],0.075 µM
same,Km,[5]; [7],0.58 µM
same,Km,[5]; [10],0.12 µM
same,Km,[5]; [8],0.249 µM
same,Km,[5]; [9],0.216 µM
same,Km,HIV-1 RT mutant 69S-SS; ATP 3.2 mM,0.22 µM
same,Km,HIV-1 RT mutant 69S-SS; without ATP,0.066 µM
same,Km,[6]; ATP 3.2 mM,0.21 µM
same,Km,[6]; without ATP,0.045 µM
same,Km,HIV-1 RT mutant 69S-SG; [7],0.36 µM
same,Km,HIV-1 RT mutant 69S-SG; [10],0.1 µM
same,Km,HIV-1 RT mutant 69S-SG; [8],0.228 µM
same,Km,HIV-1 RT mutant 69S-SG; [9],0.239 µM
same,Km,HIV-1 RT mutant 69S-AG; [7],0.28 µM
same,Km,HIV-1 RT mutant 69S-AG; [10],0.1 µM
same,Km,HIV-1 RT mutant 69S-AG; [8],0.126 µM
same,Km,HIV-1 RT mutant 69S-AG; [9],0.117 µM
same,Km,HIV-1 RT mutant V75T; ATP 3.2 mM,0.165 µM
same,Km,HIV-1 RT mutant V75T; without ATP,0.079 µM
same,Km,HIV-1 RT mutant Q151M; ATP 3.2 mM,0.174 µM
same,Km,HIV-1 RT mutant Q151M; without ATP,0.117 µM
